In PubChem BioAssay AID832 (PCMD, 2007):
Inconclusive results are not listed. The source made the active and inactive calls. The rule behind the calls is not given here.

Target: Cathepsin G (Homo sapiens) (UniProt P08311)
Experiment: IC50 of CTSG protease blockers – biochemical, confirmation, dose response (AID 832)
Conditions: purified cathepsin G enzyme activity, signal read-out

Sequence of Cathepsin G (Homo sapiens) (P08311 21-244 limits assumed): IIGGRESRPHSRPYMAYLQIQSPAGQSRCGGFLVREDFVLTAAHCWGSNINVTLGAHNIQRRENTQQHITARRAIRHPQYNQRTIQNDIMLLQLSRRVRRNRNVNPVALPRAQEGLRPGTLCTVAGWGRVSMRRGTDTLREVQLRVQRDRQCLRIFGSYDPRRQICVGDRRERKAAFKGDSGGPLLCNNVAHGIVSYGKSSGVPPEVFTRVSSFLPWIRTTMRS

IC50, inactive:
COc1ccc(C2C(C(=O)c3cccs3)=C(O)C(=O)N2c2nncs2)cc1 (stereo not drawn) > 50 µM
O=C1CCCC(O)=C1C=NCCc1ccccc1 > 50 µM
COC(=O)c1sc(N2C(=O)C(O)=C(C(=O)c3ccc(C)o3)C2c2ccc(F)cc2)nc1C (stereo not drawn) > 50 µM
